The test system of series [1] is most sensitive bacterial strain. Kind of series: bactericidal activity of D, MIC. Type of series: cell-based. Conditions: converted value in brackets; read-out: minimal inhibitory concentration.
The test system of series [2] is bacteria. Description: bactericidal activity of D, MIC (Thailand group). Type of series: cell-based. Conditions: converted value in brackets.
Series [3] relates to AChE. Further details: method as in PMID 11374978. To be noted: read-out: AChE inhibition IC50; cited from earlier work.
The next series has as its system AR; ERα. To be noted: cited from earlier work.
The test system of the next series is human MAO-A. Set-up: method as in PMID 28109809. To be noted: cited from earlier work.
The next series relates to MAO-B. Further details: method as in PMID 28109809. To be noted: screened at 10 μM; cited from earlier work.
A further series deals with GDH. Further details: method as in PMID 36455296. To be noted: read-out: GDH inhibition IC50; cited from earlier work.
The next series relates to TRPV1. Further details: method as in PMID 33806325. To be noted: capsaicin-induced, F11 cell culture; read-out: TRPV1-Ca2+ release IC50; cited from earlier work.
A further series deals with paclitaxel-CINP. Set-up: method as in PMID 33806325. To be noted: cited from earlier work.
In series [4] the test system is kainic acid (KA)-induced status epilepticus. Set-up: method as in PMID 25171200. To be noted: D ip 20 mg/kg 30 min prior to KA; cited from earlier work.
The subject of series [5] is global cerebral ischemia BOCCA model. Further details: method as in PMID 33918660. To be noted: cited from earlier work.
The subject of series [6] is high fat-diet induced obesity. Further details: method as in PMID 21972114. To be noted: HFD plus D 200 mg/kg (ppm), 7 weeks; cited from earlier work.
A further series concerns HepG2 cells. Further details: method as in earlier work. To be noted: free fatty acid mixture (oleate:palmitate = 2:1); cited from earlier work.
For series [7], the system named is adipose stem cells (ASCs). Further details: method as in PMID 31861646. To be noted: cited from earlier work.
Series [8] deals with collagen/epinephrine-induced thromboembolism. Further details: method as in PMID 34575088. To be noted: D at 12.5 mg/kg; cited from earlier work.
Series [9] relates to most sensitive bacterial strain. Further details: method as in PMID 12877552. Conditions: cited from earlier work.
Series [10] relates to bacteria. Set-up: method as in doi:10.7324/JAPS201331012. To be noted: cited from earlier work.
Series [11] concerns destabilization of medial meniscus (DMM) OA. Further details: method as in PMID 33878544. To be noted: daily gavage, 20 mg/kg, 8 weeks after DMM; cited from earlier work.
A further series concerns hair growth. Further details: method as in PMID 32823713. Conditions: cited from earlier work.
For series [12] the following is noted: cited from earlier work.
The conditions of series [13]: cited from earlier work. The source holds these as a separate data set.
In another series the test system is CYP2C19 and 3A4. Conditions: cited from earlier work.
The test system of the next series is carboxyesterase-2 (CES2). To be noted: cited from earlier work.
The conditions of series [14]: oral AGN 100 mg per rat (~ 300 mg/kg bw); cited from earlier work.
For series [15], the system named is AChE. Further details: method as in PMID 17382968. Conditions: in vitro test; cited from earlier work.
In series [16] the test system is AChE. Set-up: method as in PMID 17382968. Conditions: ex vivo, 6 h after dose; cited from earlier work.
The subject of a further series is breast cancer cell. Further details: method as in PMID 36830050. To be noted: concentration-dependent; cited from earlier work.
In series [17] the test system is scopolamine-induced memory disruption. Set-up: method as in PMID 17382968. To be noted: 10 mg/kg, po; cited from earlier work.
In the next series the test system is HFD-induced obese mice. Set-up: method as in PMID 34165214. To be noted: daily oral 10 and 20 mg/kg, 5 weeks; cited from earlier work.
The test system of the next series is TNBS-induced colitis. Set-up: method as in PMID 39042157. Conditions: cited from earlier work.
The subject of a further series is OVX-induced bone loss. Further details: method as in PMID 37866743. To be noted: oral nodakenin; cited from earlier work.
Series [18] has as its system bone marrow stem cells (BMSCs). Further details: method as in PMID 37866743. To be noted: cell culture exposure; cited from earlier work.
Series [19] deals with RANKL-induced osteoclastogenesis. Set-up: method as in PMID 37866743. Conditions: cell culture model; cited from earlier work.
Another series concerns CP-treated mice. Set-up: method as in PMID 34875347. Conditions: cited from earlier work.
The conditions of series [20]: rat, in vivo, iv; cited from earlier work.
For series [21] the following is noted: rat, in vivo, po, cited from earlier work.
In series [22] the test system is MDA-MB231 sc breast cancer xenograft. To be noted: 30 mg/kg ip twice weekly, 5-week assay; cited from earlier work.
Series [23] has as its system acute thermal pain models and CINP. Set-up: method as in PMID 36249788. To be noted: once-daily ip; hot plate, tail-flick and CINP mice; cited from earlier work.
Where [24] appears, read: topical 0.15% D or 2% AGN root extract.

≈ marks a conversion by molar mass, not a printed value. Where “and” joins values, the source holds several entries; their conditions need not be identical. Identical values can stand only once. Entries after “also recorded” stand apart in the source; their conditions may differ. Like-named read-outs stand apart in the source and are kept apart here. Where only a bound is given, the exact number is not on record here.

Take `CC(C)=CC(=O)O[C@H]1Cc2cc3ccc(=O)oc3cc2OC1(C)C` [D, decursin]: the values for the MIC (in series [1]; in the series on bacteria [2]; in the series with bacteria [10]) were around 38 µM (≈ 12.5 µg/mL), around 98 µM (≈ 32.2 µg/mL) and ~ 32 mg/L, respectively. Besides, the IC50 with AChE [3] is 390000 nM; in the series on AR; ERα (antagonist/degrader), around 5000 nM; in the series on human MAO-A (read-out: MAO-A inhibition IC50), 1890 nM; in the series with GDH, ~1000 nM and 1000 nM; in the series on TRPV1, around 1000 nM. For the same compound, in the series with AR; ERα (responsive cancer cell culture models), the “mode of action on AR and ERα” value is reported as “antagonists/degraders”. Besides, on human MAO-A (reversible and competitive inhibitor), the Ki was 170 nM. In the series with MAO-B, the “inhibitory activity on MAO-B” value was “lacked any inhibitory activity”. The mechanical allodynia relief result with paclitaxel-CINP (first it injection of D 50 mg/kg) is given as “no relief”. In the series on paclitaxel-CINP (second and third it injections), the “duration of blunted allodynia” value was “up to 3 h”. Also, the behavioral seizure activity entry in series [4] is on record as “decreased behavioral seizure activity”. Besides, the “protection of CA1 pyramidal neurons” value in series [5] (oral post-ischemia, AGN 350 and 400 mg/kg or D 25 mg/kg) is “spared the pyramidal neurons from ischemic death; also recorded: detectable protection”. Also, in series [5] (post-treatment, 5 days following BOCCA), the “spatial memory (8-ARMT) and learning memory (PAT)” value is given as “preserved spatial memory”. Further, the weight gain result in series [6] is listed as “decreased weight gain”. For the same compound, the lipid accumulation result in the series on HepG2 cells was “suppressed lipid accumulation”. The adipocyte differentiation result in [7] is reported as “significantly inhibited adipocyte differentiation”. The protection against thromboembolism entry in [8] is reported as “replicated the protective effect”. For the same compound, in series [9], the minimal inhibitory concentration is ~ 12.5 mg/L. Moreover, in series [11], the “destruction of articular cartilage” value is listed as “attenuated the destruction of articular cartilage”. The “time at which hair growth was complete” value in the series on hair growth (setting [24]) is recorded as 17 days. Also, the “time from which hair growth was visibly facilitated” value in the series with hair growth (setting [24]) is listed as 7 days. Moreover, in the series with hair growth (topical twice a day 17 days, 0.15% D or 2% AGN root extract), the hair growth result is reported as “promoted hair growth in equal efficacy”. The “relative circulating Cmax and AUC” value in series [12] (in vivo) is recorded as around 1 ×. Moreover, in series [12] (in vivo), the “relative plasma Cmax” value was 1 x. For the same compound, the Cmax in series [12] (read-out: mean peak concentration Cmax, 10 men and 10 women, 800 mg INM176 AGN oral) is 5.3 nM. The t1/2 in series [13] (4.6 g AGN root powder per subject) is given as 3.03 h. For the same compound, the tmax in [13] (in vivo) is 0.44 h. Besides, in the series with CYP2C19 and 3A4, the “Cyp isoforms for metabolism to DOH” value is reported as “major human isoforms”. Moreover, the “CES2 contribution to metabolism to DOH” value in the series with carboxyesterase-2 (CES2) was “further contributed”. Also, the “elimination of plasma D” value in series [14] is given as “barely detectable after 7 h”. Besides, in series [14], the “time of peak absorption, plasma D” value was “around 4 h”.
In the case of `CC(C)(O[C@@H]1O[C@H](CO)[C@@H](O)[C@H](O)[C@H]1O)[C@H]1Cc2cc3ccc(=O)oc3cc2O1` [Nodakenin, nodakenin], in the series with AChE [3], the IC50 was 68000 nM. In addition, in the series with AChE [15], the IC50 is 84700 nM. For the same compound, in the series with AChE [16], the “brain slice AChE activity” value is recorded as “lowered”. Moreover, the “breast cancer cell viability” value with breast cancer cell is “inhibited breast cancer cell viability”. Moreover, the scopolamine-induced memory disruption entry in [17] was “ameliorate”. In the series with HFD-induced obese mice, the “suppression of weight gain, dyslipidemia and fatty liver” value is reported as “comparable potency to orlistat”. Besides, in the series with TNBS-induced colitis (colon sample, 40 mg/kg), the “downregulation of COX-2 mRNA expression” value was 1.98 fold, the “downregulation of IL-1β mRNA expression” value is on record as 1.29 fold, the “downregulation of IL-18 mRNA expression” value is 1.17 fold and the “downregulation of NFƙB mRNA expression” value is reported as 1.24 fold. Also, in the series on TNBS-induced colitis (colon sample, 40 mg/kg), the “downregulation of NLRP3 mRNA expression” value is 1.78 fold and the “downregulation of iNOS mRNA expression” value was 1.2 fold. Further, the “disease activity index (DAI) score” value in the series on TNBS-induced colitis (gavage 10, 20, and 40 mg/kg) is reported as “lowered the DAI score”. Moreover, the bone mass entry in the series with OVX-induced bone loss is on record as “elevated mouse bone mass”. Further, the osteogenic differentiation entry in series [18] is recorded as “promoted osteogenic differentiation”. The osteoclastogenesis result in [19] is given as “inhibited RANKL-induced osteoclastogenesis”. For the same compound, the “levels of IFN-γ, IL-12, IL-2, IL-6, and TNF-α in serum and spleen” value in the series on CP-treated mice was “increased”. Also, in [13] (in vivo), the “apparent volume of distribution Vd” value is reported as 2800 L and the t1/2 is 6.28 h. Moreover, in series [20], the t1/2 is 3.3 h. For the same compound, in series [21] (2.5 mg/kg), the t1/2 is given as 4.6 h. The t1/2 in series [21] (10 mg/kg) is on record as 6.2 h. In addition, the xenograft growth inhibition in series [22] is given as ~ 88%.
For the compound `CN1CC[C@]23c4c5ccc(O)c4O[C@H]2[C@@H](O)C=C[C@H]3[C@H]1C5` [morphine, reference compound], the “time to tolerance development” value in series [23] is listed as below 3 days.

The term IC50 denotes the point on the concentration scale where inhibition reaches its midpoint. As usually defined, the Ki is the equilibrium dissociation constant of an inhibitor or competing ligand from its target.
